What all share (assay type): in vivo
The test system of one assay is Boophilus microplus. The experiment in a line: Boophilus microplus injection test. To be noted: 20 μg/animal, injected into abdomen of adult engorged female ticks; egg deposition monitored after 7 days. On the procedure: Boophilus microplus Injectiontest Solvent: dimethyl sulfoxide To produce a suitable preparation of active compound, 10 mg of active compound are dissolved in 0.5 ml solvent, and the concentrate is diluted with solvent to the desired concentration. Five adult engorged female ticks (Boophilus microplus) are injected with 1 μl compound solution into the abdomen. Ticks are transferred into replica plates and incubated in a climate chamber. After 7 days, the egg deposition of fertile eggs is monitored. Eggs where fertility is not visible are stored in glass tubes in a climate chamber till hatching after about 42 days. An efficacy of 100% means that all eggs are infertile; 0% means that all eggs are fertile.

A further assay concerns Ctenocephalides felis. The experiment in a line: whole plant or invertebrate. To be noted: po, 48 h. The procedure: Ctenocephalides felis—Oral Test
(§1) Solvent: dimethyl sulfoxide
To produce a suitable preparation of active compound, 10 mg of active compound are dissolved in 0.5 ml solvent, and the concentrate is diluted with cattle blood to the desired concentration.
Approximately 20 adult unfed cat fleas (Ctenocephalides felis) are placed in flea chambers. The blood chamber, sealed with parafilm on the bottom, are filled with cattle blood supplied with compound solution and placed on the gauze covered top of the flea chamber, so that the fleas are able to suck the blood. The blood chamber is heated to 37° C. whereas the flea chamber is kept at room temperature.
After 2 days mortality in % is determined 100% means that all the fleas have been killed; 0% means that none of the fleas have been killed.

For the next assay, the system named is Musca domestica. Nature of the assay: whole plant or invertebrate. To be noted: 48 h. The procedure:
as §1
To produce a suitable preparation of active compound, 10 mg of active compound are dissolved in 0.5 ml solvent, and the concentrate is diluted with water to the desired concentration.
10 adult house flies (Musca domestica) are transferred into a container, containing a sponge soaked with a mixture of sugar solution and compound solution of the desired concentration.
After 2 days mortality in % is determined. 100% means that all the flies have been killed; 0% means that none of the flies have been killed.

Another assay relates to Lucilia cuprina. Nature of the assay: whole plant or invertebrate. To be noted: in Equus caballus, 48 h. The procedure: solvent: dimethyl sulfoxide
10 mg active compound are dissolved in 0.5 ml Dimethylsulfoxid. Serial dilutions are made to obtain the desired rates.
Approximately 20 1st instar larvae of the Australian sheep blowfly (Lucilia cuprina) are transferred into a test tube containing minced horse meat and compound solution of the desired concentration.
After 2 days mortality in % is determined. 100% means that all the larvae have been killed; 0% means that none of the larvae have been killed.

Another assay deals with Myzus persicae. Nature of the assay: whole plant or invertebrate. To be noted: in Brassica rapa, foliar, 144 h. The procedure: Myzus persicae—Spray Test
(§2) Solvent: 78.0 parts by weight acetone
(§3) • 1.5 parts by weight dimethylformamide Emulsifier: 0.5 parts by weight alkylarylpolyglycolether
(§4) To produce a suitable preparation of active compound, 1 part by weight of active compound is mixed with the stated amount of solvent and emulsifier, and the concentrate is diluted with emulsifier-containing water to the desired concentration.
Chinese cabbage (Brassica pekinensis) leaf disks infected with all instars of the green peach aphid (Myzus persicae), are sprayed with a preparation of the active ingredient of the desired concentration.
After 6 days, mortality in % is determined 100% means that all aphids have been killed; 0% means that none of the aphids have been killed.

Another assay deals with Tetranychus urticae. Nature of the assay: whole plant or invertebrate. To be noted: 144 h. The procedure: Tetranychus urticae—Spray Test, OP-Resistant
as §2, §3, §4
French beans (Phaseolus vulgaris) which are heavily infested with all stages of the two spotted spidermite (Tetranychus urticae), are sprayed with a preparation of the active ingredient of the desired concentration.
After 6 days, mortality in % is determined. 100% means that all spider mites have been killed and 0% means that none of the spider mites have been killed.

A further assay deals with Phaedon cochleariae. Nature of the assay: whole plant or invertebrate. To be noted: in Brassica rapa, foliar, 168 h. The procedure:
Phaedon cochleariae—Spray Test
Solvent: 78.0 parts by weight of acetone
• 1.5 parts by weight of dimethylformamide Emulsifier: 0.5 parts by weight of alkylaryl polyglycolether
as §4
Chinese cabbage (Brassica pekinensis) leaf-disks are sprayed with a preparation of the active ingredient of the desired concentration. Once dry, the leaf disks are infested with mustard beetle larvae (Phaedon cochleariae).
After 7 days mortality in % is determined. 100% means that all beetle larvae have been killed and 0% means that none of the beetle larvae have been killed.

In the next assay the test system is Spodoptera frugiperda. Nature of the assay: whole plant or invertebrate. To be noted: in Zea mays, 168 h. The procedure:
Spodoptera frugiperda—Spray Test
as §2, §3
To produce a suitable preparation of the active compound, 1 part by weight of active compound is mixed with the stated amount of solvent and emulsifier, and the concentrate is diluted with emulsifier-containing water to the desired concentration.
Maize (Zea mays) leaf sections are sprayed with a preparation of the active ingredient of the desired concentration. Once dry, the leaf sections are infested with fall armyworm larvae (Spodoptera frugiperda).
After 7 days, mortality in % is determined 100% means that all caterpillars have been killed and 0% means that none of the caterpillars have been killed.

Experimental findings from patent publication US9206122B2, “Pesticidal arylpyrrolidines” (BAYER INTELLECTUAL PROPERTY GMBH, priority 2012, dated 2015) are described below.

As usually defined, the mortality is the percentage killed. Lower therefore signals more survivors.

For `O=C(NC1CCc2cc(N3CCC(c4cc(Cl)c(F)c(Cl)c4F)(C(F)(F)F)C3O)ccc21)C1CC1` (stereo not drawn) [I-A-31], the “efficacy (100% means that all eggs are infertile)” value in the assay on Boophilus microplus is on record as 100%. Still for that read-out and setting: in the case of `CC(=O)NC1CCc2cc(N3CCC(c4cc(Cl)c(Cl)c(Cl)c4)(C(F)(F)F)C3O)ccc21` (stereo not drawn) [I-A-13] it was 100%; in that of `CC(C)CC(=O)NC1CCc2cc(N3CCC(c4cc(Cl)c(Cl)c(Cl)c4)(C(F)(F)F)C3O)ccc21` (stereo not drawn) [I-A-18], 100%. Same read-out and setting: in the case of `CC(=O)NC1CCc2cc(N3CCC(c4cc(C(F)(F)F)cc(C(F)(F)F)c4)(C(F)(F)F)C3O)ccc21` (stereo not drawn) [I-A-37] it was 100%. The same measure, in the same setting: in the case of `O=C(NC1CCc2cc(N3CCC(c4ccc(F)c(C(F)(F)F)c4)(C(F)(F)F)C3O)ccc21)C1CC1` (stereo not drawn) [I-A-115] it was 100%; in that of `O=C(NC1CCc2cc(N3CCC(c4cc(Cl)cc(C(F)(F)F)c4)(C(F)(F)F)C3O)ccc21)C1CC1` (stereo not drawn) [I-A-79], 100%. On to `O=C(CC1CC1)NC1CCc2cc(N3CCC(c4cc(Cl)c(F)c(Cl)c4F)(C(F)(F)F)C3O)ccc21` (stereo not drawn) [I-A-33], for which the “efficacy (100% means that all eggs are infertile)” value in the assay with Boophilus microplus is given as 100%.

For the compound `CCC(=O)NC1CCc2cc(N3CCC(c4cc(Cl)cc(Cl)c4)(C(F)(F)F)C3O)ccc21` (stereo not drawn) [I-A-2], the “efficacy (100% means that all eggs are infertile)” value with Boophilus microplus is given as 100%. The mortality at 100 ppm worked out at 100% with Ctenocephalides felis, 80% in the assay with Musca domestica and 100% with Lucilia cuprina. `CCC(=O)NC1CCc2cc(N3CCC(c4cc(C(F)(F)F)cc(C(F)(F)F)c4)(C(F)(F)F)C3O)ccc21` (stereo not drawn) [I-A-38, N-(5-{3-[3,5-bis(trifluoromethyl)phenyl]-2-hydroxy-3-(trifluoromethyl)pyrrolidin-1-yl}-2,3-dihydro-1H-inden-1-yl)propanamide]: the mortality at 100 g/ha in the assay with Myzus persicae was determined as 100%; in the assay with Tetranychus urticae, 90%; in the assay on Phaedon cochleariae, 100%; in the assay on Spodoptera frugiperda, 100%. `CC(=O)NC1CCc2cc(N3CCC(c4cc(Cl)cc(Cl)c4)(C(F)(F)F)C3O)ccc21` (stereo not drawn) [I-A-1]: in the assay on Boophilus microplus, the “efficacy (100% means that all eggs are infertile)” value is 100%. Regarding `CCCC(=O)NC1CCc2cc(N3CCC(c4cc(C(F)(F)F)cc(C(F)(F)F)c4)(C(F)(F)F)C3O)ccc21` (stereo not drawn) [I-A-40], the “efficacy (100% means that all eggs are infertile)” value in the assay on Boophilus microplus stood at 100%. Turning to `O=C(CC1CC1)NC1CCc2cc(N3CCC(c4cc(Cl)c(Cl)c(Cl)c4)(C(F)(F)F)C3O)ccc21` (stereo not drawn) [I-A-21], the “efficacy (100% means that all eggs are infertile)” value with Boophilus microplus was determined as 100%.
